Data set [1] has as its system WM cells. The data set can be described thus: Soluble IL-6 treatment of WM cells in the absence of BMSC: CXCR4 expression and IgM secretion. Format: cell-based. The settings on record: blockade of IL-6/IL6R/STAT3 axis, FIG. 3. An excerpt:
FIG. 3: Even in the Absence of BMSC, Soluble IL-6 Upregulates CXCR4 Expression & IgM Secretion in WM Cells; which is Prevented by Blockade of IL-6/IL6R/STAT3 Axis. BP-1-102 is a STAT3 inhibitor.

Data set [2] can be described thus: Solubility of mavorixafor by pH and in water. Format: physicochemical. The protocol: Mavorixafor (formerly designated X4P-001 and AMD11070) is a CXCR4 antagonist, with molecular formula C21H27N5; molecular weight 349.48 amu; and appearance as a white to pale yellow solid. Solubility: freely soluble in the pH range 3.0 to 8.0 (>100 mg/mL), sparingly soluble at pH 9.0 (10.7 mg/mL) and slightly soluble at pH 10.0 (2.0 mg/mL). […] Melting point: 108.9° C.

The nature of data set [3]: in vivo. The settings on record: Terminal half-life. As for the experimental part:
In certain embodiments, the dosage composition may be provided twice a day in divided dosage, approximately 12 hours apart. In other embodiments, the dosage composition may be provided once daily. […] Dosage for oral administration may be from about 100 mg to about 1200 mg once or twice per day.

Data set [4] relates to WM cells. Kind of data set: Co-culture of BMSC with WM cells: BM stroma-induced IgM hypersecretion. The settings on record: FIG. 2. The class given is cell-based.
Data set [5] concerns IL-6. The data set can be described thus: IL-6 overexpression and hypersecretion (co-culture of BMSC with WM cells). The settings on record: mavorixafor as a single agent. The class given is cell-based.

A word on the solubility: it is how much of the substance goes into solution per volume. The low end stands for little dissolved substance, the high end for much dissolved substance. As a reminder, the half-life is how long it takes for the measured level to halve.

`CN(CC(=O)N(Cc1ccc(C2CCCCC2)cc1)c1ccc(C(=O)O)c(O)c1)S(=O)(=O)c1c(F)c(F)c(F)c(F)c1F` [BP-1-102]: in data set [1], the “Soluble IL-6-induced upregulation of CXCR4 expression in WM cells” value is listed as “Prevented” and the “Soluble IL-6-induced upregulation of IgM secretion in WM cells” value was “Prevented”.

In turn, `NCCCCN(Cc1nc2ccccc2[nH]1)[C@H]1CCCc2cccnc21` [Mavorixafor, mavorixafor] showed a solubility in data set [2] (aqueous buffer, pH range 3.0 to 8.0 (freely soluble)) greater than 100 mg/mL. Also, the Solubility in water result in data set [2] (water) was “only slightly soluble”. In data set [3], this compound displayed a half-life of 12 to 24 h. Also, in data set [4], the “Bone marrow stroma-induced IgM hypersecretion in WM cells” value is on record as “blocks”. Also, the “Overexpression and hypersecretion of IL-6” value in data set [5] is “significantly reduces”.

The values above are taken from patent publication US20260053790A1, “TREATMENTS FOR CONDITIONS INVOLVING INCREASED IL-6 LEVELS” (X4 Pharmaceuticals, Inc., priority 2022, published 2026).
